# Results as given in ChEMBL document CHEMBL1201862, “PubChem BioAssay data set” (2004).
#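 96-well plates; 48 h exposure; 5 concentrations. Endpoints by linear interpolation between flanking doses. Not reached: highest tested concentration assigned. Here, GI50 denotes the concentration required for 50% inhibition of growth.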 Active and inactive are the calls of the source. No stated cut-off is given here; in the data, active = GI50 up to about 1.1 µM and inactive = higher.
# Legend:
# Test in all cases: DTP human tumour cell line panel, 48 h
# OVCAR-8 = system: OVCAR-8
# SNB-19 = system: SNB-19
# A549 = system: A549
# MCF7 = system: MCF7
# SK-MEL-28 = system: SK-MEL-28
# OVCAR-3 = system: OVCAR-3
# TK-10 = system: TK-10
# MDA-MB-435 = system: MDA-MB-435
# SF-295 = system: SF-295
# BT-549 = system: BT-549
# SNB-75 = system: SNB-75
# NCI-H460 = system: NCI-H460
# COLO 205 = system: COLO 205
# HCT-15 = system: HCT-15
# HL-60 = system: HL-60
# CCRF-CEM = system: CCRF-CEM
# 786-0 = system: 786-0
# EKVX = system: EKVX
# HCC 2998 = system: HCC 2998
# A498 = system: A498
Compound,GI50 (OVCAR-8),GI50 (SNB-19),GI50 (A549),GI50 (MCF7),GI50 (SK-MEL-28),GI50 (OVCAR-3),GI50 (TK-10),GI50 (MDA-MB-435),GI50 (SF-295),GI50 (BT-549),GI50 (SNB-75),GI50 (NCI-H460),GI50 (COLO 205),GI50 (HCT-15) [µM],GI50 (HL-60),GI50 (CCRF-CEM),GI50 (786-0),GI50 (EKVX),GI50 (HCC 2998),GI50 (A498)
CC1=NN(C(=O)CC(=O)Nc2ccccc2Cl)C(=O)C1/N=N\c1ccc(S(=O)(=O)c2ccc(/N=N/C3C(=O)N(C(=O)CC(=O)Nc4ccccc4Cl)N=C3C)cc2)cc1 (configuration not stated),> 100 µM (inactive),> 100 µM (inactive),> 100 µM (inactive),> 100 µM (inactive),> 100 µM (inactive),> 100 µM (inactive),> 100 µM (inactive),> 100 µM (inactive),> 100 µM (inactive),> 100 µM (inactive),> 100 µM (inactive),> 100 µM (inactive),> 100 µM (inactive),> 100,> 100 µM (inactive),> 100 µM (inactive),> 100 µM (inactive),> 100 µM (inactive),> 100 µM (inactive),–
O=S1(=O)OCCCOS(=O)(=O)C1Br,> 100 µM (inactive),> 100 µM (inactive),> 100 µM (inactive),> 100 µM (inactive),> 100 µM (inactive),> 100 µM (inactive),> 100 µM (inactive),> 100 µM (inactive),> 100 µM (inactive),> 100 µM (inactive),> 100 µM (inactive),–,> 100 µM (inactive),> 100,–,–,> 100 µM (inactive),> 100 µM (inactive),> 100 µM (inactive),–
COC(=O)c1ccccc1CC1Cc2ccc3c(c2C1=O)CCC3 (configuration not stated),49.5 µM (inactive),> 100 µM (inactive),> 100 µM (inactive),20.7 µM (inactive),37.2 µM (inactive),> 100 µM (inactive),> 100 µM (inactive),24.9 µM (inactive),57.1 µM (inactive),34.7 µM (inactive),13.8 µM (inactive),92.3 µM (inactive),29.9 µM (inactive),50,16.6 µM (inactive),55.8 µM (inactive),80.5 µM (inactive),25.6 µM (inactive),28.2 µM (inactive),–
COC(=O)c1c(O)ccc2c1c1c(n2Cc2cc(OC)cc(OC)c2)C(=O)c2ccccc2C1,43.3 µM (inactive),> 100 µM (inactive),36.2 µM (inactive),23.7 µM (inactive),16.1 µM (inactive),43.2 µM (inactive),52 µM (inactive),10.9 µM (inactive),52.6 µM (inactive),55.5 µM (inactive),4.7 µM (inactive),31 µM (inactive),13.2 µM (inactive),32.1,> 100 µM (inactive),18.2 µM (inactive),92 µM (inactive),–,–,92.3 µM (inactive)
